Laboratory results: patent US20190241569A1, “3-(ARYL OR HETEROARYL) METHYLENEINDOLIN-2-ONE DERIVATIVES AS INHIBITORS OF CANCER STEM CELL PATHWAY KINASES FOR THE TREATMENT OF CANCER” (Boston Biomedical, Inc., priority 2013, published 2019)
Where two headings read alike, the source gives them in different places.

Tests used:
A549 = experiment: Bulk cancer cells, Cell Titer-Glo 72 hours (Test Example 2); type: cell-based; settings: Homo sapiens
Experimental: (§1) Tubes of 3× drug (60 uM in 500 uL complete media) were prepared from 5 mM stock solutions in DMSO. […] To treat cells, 50 uL of drug from the dilution plate was removed and added to the cell plates. […] Cells were harvested 72 hours after drug addition using Cell Titer-Glo (Promega) and luminescence measured on a plate reader.

ACHN = experiment: as above; type: cell-based; settings: Homo sapiens, ACHN, 72 h
Experimental: as §1

FaDu = experiment: as above; type: cell-based; settings: Homo sapiens
Experimental: as §1

FaDu CSC = experiment: Cancer stem cells, Cell Titer-Glo 72 hours (Test Example 3); type: cell-based; settings: Homo sapiens, FaDu, 72 h
A549 CSC = experiment: as above; type: cell-based; settings: Homo sapiens
ACHN CSC = experiment: as above; type: cell-based; settings: Homo sapiens, ACHN, 72 h
p-AMPK Thr172 = experiment: Kinase inhibition, Western blot in HeLa cells (Test Example 5); type: cell-based; settings: Homo sapiens, 6 hours, DMSO = 100, read-out: p-AMPK Relative Intensity (%)
Experimental: (§2) HeLa cells were treated with 5 uM of the indicated compound for 6 hours. Following compound incubation, cells were washed twice with ice-cold PBS and lysed in lysis buffer (50 mM HEPES, pH 7.5, 1% Nonidet P40, 150 mM NaCl, 1 mM EDTA, 1× protease inhibitor cocktail (Promega)). 30 micrograms of soluble protein was separated by SDS-PAGE and transferred to PVDF membranes. Primary antibodies against p-AMPK Thr172, p-RPS6 Ser235/236, p-RPS6 Ser240/244, and Tubulin (Cell Signaling Technology) were used. The antigen-antibody complexes were visualized by enhanced chemiluminescence (BioRad). The results are shown below in Tables 17A-17E.

p-RPS6 Ser235/236 = experiment: as above; type: cell-based; settings: Homo sapiens, 6 hours, DMSO = 100, read-out: p-RPS6 Ser235/236 Relative Intensity (%)
Experimental: as §2

p-RPS6 Ser240/244 = experiment: as above; type: cell-based; settings: Homo sapiens, 6 hours, DMSO = 100, read-out: p-RPS6 Ser240/244 Relative Intensity (%)
Experimental: as §2

human RIOK2 protein = target: T1, human RIOK2 protein (Homo sapiens, UniProt Q9BVS4); experiment: RIOK2 autophosphorylation ELISA (Test Example 4); type: biochemical
T1 construct: glutathione S-transferase is fused to N-terminal of a full-length human RIOK2 protein; GST (glutathione S-transferase) (N); purchased CarnaBio, Inc; host or cells: baculovirus-Sf21 cell expression system
Experimental: A protein in which glutathione S-transferase is fused to N-terminal of a full-length human RIOK2 protein was used as a recombinant human RIOK2 protein. The protein was prepared using a baculovirus-Sf21 cell expression system from CarnaBio, Inc. A kinase reaction solution was prepared by mixing 25 μg/mL of the recombinant human RIOK2 protein and 100 μM of ATP in 20 μl of kinase reaction buffer (50 mM Tris-HCl, 10 mM MgCl2, 10 mM MnCl2, 1 mM DTT, 0.01% Brij, 1× PhosSTOP (manufactured by Roche Applied Science)), and was incubated at a temperature of 30° C. for 1 hour. After adding 30 μl of 40 mM EDTA solution to this kinase reaction solution, the kinase reaction solution was transferred to a MaxiSorp 96 well plate (manufactured by Nunc). Thereafter, phosphorylated human RIOK2 protein was allowed to adsorb onto the wells by leaving the plate in a refrigerator overnight.
The following day, the supernatant was removed, and the wells were washed three times with ELISA buffer (20 mM Tris-HCl, 150 mM NaCl, 0.2% Tween-20, 0.1% BSA). Thereafter, 100 μl of Blocking-One P (product name; manufactured by Nacalai Tesque, Inc.) was applied to the wells, and a blocking treatment was performed for 1 hour at room temperature. […] After further washing the wells, a secondary antibody, anti-rabbit IgG conjugated with horseradish peroxidase (manufactured by Jackson ImmunoResearch; 1/4000 ELISA buffer-diluted solution), was applied to the wells, and incubation was performed for 30 minutes at room temperature. After washing the wells once again, 50 μl of tetramethyl benzidine (TMB) aqueous solution (manufactured by Nacalai Tesque, Inc.) was applied to the wells, and a coloring reaction was performed for 30 minutes at room temperature. Thereafter, the coloring reaction was stopped by adding 50 μl of 2M H2SO4 to the wells. An absorptiometric level of 450 nm was measured in each well using ARVO SX (manufactured by Wallac).

T1 sequence (Q9BVS4 whole entry, the tested form may be a part): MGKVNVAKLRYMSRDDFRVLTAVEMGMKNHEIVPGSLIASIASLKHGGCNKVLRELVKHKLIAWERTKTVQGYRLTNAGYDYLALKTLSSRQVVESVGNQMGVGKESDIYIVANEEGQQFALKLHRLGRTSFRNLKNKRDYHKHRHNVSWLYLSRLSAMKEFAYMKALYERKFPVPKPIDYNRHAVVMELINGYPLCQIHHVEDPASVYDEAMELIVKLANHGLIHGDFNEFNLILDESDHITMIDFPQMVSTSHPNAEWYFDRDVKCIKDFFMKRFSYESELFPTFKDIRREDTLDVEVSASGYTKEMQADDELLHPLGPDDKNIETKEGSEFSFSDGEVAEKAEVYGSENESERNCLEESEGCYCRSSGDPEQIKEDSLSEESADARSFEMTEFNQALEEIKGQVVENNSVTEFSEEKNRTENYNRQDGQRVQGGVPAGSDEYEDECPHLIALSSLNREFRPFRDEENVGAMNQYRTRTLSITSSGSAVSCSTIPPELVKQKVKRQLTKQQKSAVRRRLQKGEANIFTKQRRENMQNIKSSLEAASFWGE

| SMILES | IC50 (A549) [µM] | IC50 (ACHN) [µM] | IC50 (FaDu) [µM] | IC50 (FaDu CSC) [nM] | IC50 (A549 CSC) [µM] | IC50 (ACHN CSC) [µM] | activity at 5 µM (p-AMPK Thr172; 5 uM compound, Western blot) [%] | activity at 5 µM (p-RPS6 Ser235/236; 5 uM compound, Western blot) [%] | activity at 5 µM (p-RPS6 Ser240/244; 5 uM compound, Western blot) [%] | activity at 5 µM (p-AMPK Thr172; 5 uM) [%] | activity at 5 µM (p-RPS6 Ser235/236; 5 uM) [%] | activity at 5 µM (p-RPS6 Ser240/244; 5 uM) [%] | inhibition at 1 µM (human RIOK2 protein; read-out: Inhibitory activity at 1 μM (%)) [%] | inhibition at 10 µM (human RIOK2 protein; read-out: Inhibitory activity at 10 μM (%)) [%] |
| --- | --- | --- | --- | --- | --- | --- | --- | --- | --- | --- | --- | --- | --- | --- |
| CCN(CC)CCNC(=O)c1c(C)[nH]c(/C=C2\C(=O)Nc3c2cccc3-c2cccnc2OC)c1C [Example 286] | 5.32 | 3.64 | 3.81 | 1920 | 6.87 | 2.71 | 31 | 48 | 54 | – | – | – | – | – |
| Cc1cc(C)c(/C=C2\C(=O)Nc3cccc(-c4ccncc4)c32)[nH]1 [Example 272] | 13.1 | 19.8 | 19.6 | 12200 | 30.3 | 16.2 | 75 | 50 | 47 | – | – | – | – | – |
| Cc1[nH]c(/C=C2\C(=O)Nc3cc(-c4csc(-c5ccccc5)n4)ccc32)c(C)c1C(=O)N1CCOCC1 [Example 36] | – | – | – | 41900 | – | – | – | – | – | 118 | 4 | 44 | – | – |
| Cc1[nH]c(/C=C2\C(=O)Nc3cc(-c4ccc(-c5ccccc5)s4)ccc32)c(C)c1C(=O)N1CCN(C)CC1 [Example 29] | – | – | – | – | – | – | – | – | – | 108 | 36 | 68 | – | – |
| Cc1cc(C)c(/C=C2\C(=O)Nc3c2cccc3-c2cncc3ccccc23)[nH]1 [Example 279] | 19.7 | 21 | 25.8 | – | – | – | 108 | 86 | 83 | – | – | – | – | – |
| CCN(CC)CCNC(=O)c1c(C)[nH]c(/C=C2\C(=O)Nc3ccc(-c4nc(-c5ccccc5)cs4)cc32)c1C [Example 51, (Z)-N-(2-(diethylamino)ethyl)-2,4-dimethyl-5-((2-oxo-5-(4-phenylthiazol-2-yl)indolin-3-ylidene)methyl)-1H-pyrrole-3-carboxamide] | 4.74 | 1.64 | 1.18 | 270 | 4.28 | – | – | – | – | 12 | 21 | 64 | – | – |
| COc1ncc(-c2cccc3c2/C(=C/c2[nH]c(C)cc2C)C(=O)N3)cn1 [Example 277] | 21.1 | 28.1 | 35.3 | – | – | – | 145 | 77 | 75 | – | – | – | – | – |
| CCN(CC)CCNC(=O)c1c(C)[nH]c(/C=C2\C(=O)Nc3cc(-c4ccc(-c5ccccc5)s4)ccc32)c1C [Example 15] | – | – | – | 30500 | – | – | – | – | – | 150 | 5 | 56 | – | – |
| Cc1cc(C)c(/C=C2\C(=O)Nc3cccc(-c4cncnc4)c32)[nH]1 [Example 278] | 16.3 | 16.8 | 39.7 | – | – | – | 198 | 44 | 43 | – | – | – | – | – |
| Cc1[nH]c(/C=C2\C(=O)Nc3cccc(-c4ccc(-c5ccccc5)cc4)c32)c(C)c1C(=O)N1CCN(C)CC1 [Example 110] | 21.5 | 14.9 | 7.56 | 1210 | 5.76 | – | – | – | – | 105 | 2 | 36 | – | – |
| Cc1nc(-c2ccccc2)oc1-c1ccc2c(c1)NC(=O)/C2=C\c1[nH]c(C)c(C(=O)N2CCN(C)CC2)c1C [Example 38] | – | – | – | 1600 | – | 0.5 | – | – | – | 103 | 2 | 21 | – | – |
| COC(=O)c1c(C)[nH]c(/C=C2\C(=O)Nc3ccc(-c4csc(C5CCNCC5)n4)cc32)c1C [Example 144] | 0.7 | 0.52 | 0.69 | 220 | 2.48 | – | – | – | – | 79 | 70 | 83 | – | – |
| CCN(CC)CCNC(=O)c1c(C)[nH]c(/C=C2\C(=O)Nc3cc(-c4oc(-c5ccccc5)nc4C)ccc32)c1C [Example 37] | 7.49 | 2.97 | 3.55 | 8090 | – | 1.65 | – | – | – | 151 | 4 | 43 | – | – |
| Cc1cc(C)c(/C=C2\C(=O)Nc3c2cccc3-c2cncnc2)[nH]1 [Example 276] | 25.2 | 26.9 | 28.1 | – | – | – | 113 | 51 | 50 | – | – | – | – | – |
| COc1ncc(-c2cccc3c2NC(=O)/C3=C\c2[nH]c(C)cc2C)cn1 [Example 275] | 17.7 | 21.9 | 20.8 | – | 34.7 | 17.5 | 96 | 57 | 54 | – | – | – | – | – |
| CCN(CC)CCNC(=O)c1c(C)[nH]c(/C=C2\C(=O)Nc3ccc(-c4cnn(-c5ccccn5)c4)cc32)c1C [Example 32] | 1.72 | 1.24 | 0.51 | 50 | 2.53 | 0.13 | – | – | – | – | – | – | 36 | 86 |
| COc1ncccc1-c1cccc2c1/C(=C/c1[nH]c(C)cc1C)C(=O)N2 [Example 271] | – | – | 22.6 | – | – | – | 105 | 67 | 67 | – | – | – | – | – |
| Cc1cc(C)c(/C=C2\C(=O)Nc3cccc(-c4ccc5cc[nH]c5c4)c32)[nH]1 [Example 273] | 16.6 | 20.4 | 16.4 | – | 20.2 | 18.9 | 27 | 36 | 35 | – | – | – | – | – |
| Cc1cncc(-c2cccc3c2NC(=O)/C3=C\c2[nH]c(C)cc2C)c1 [Example 280] | 21.2 | 16 | 26.4 | – | 32 | 32 | 103 | 74 | 75 | – | – | – | – | – |
| Cc1cc(C)c(/C=C2\C(=O)Nc3c2cccc3-c2ccncc2)[nH]1 [Example 281] | 23.5 | – | – | – | – | – | 83 | 68 | 65 | – | – | – | – | – |
| CCN(CC)CCNC(=O)c1c(C)[nH]c(/C=C2\C(=O)Nc3ccc(-c4ccc(-c5cccs5)s4)cc32)c1C [Example 27] | – | – | 2.51 | 830 | – | – | – | – | – | 21 | 5 | 41 | – | – |
| COc1ccc(-c2cccc3c2NC(=O)/C3=C\c2[nH]c(C)cc2C)cn1 [Example 274] | 24.4 | 28.3 | 28.4 | – | 43.4 | – | 91 | 63 | 59 | – | – | – | – | – |
